This note sets out measurements from patent US20120190580A1, “TREATMENT OF PATIENTS AFTER STENT IMPLANTATION OR BALLOON DILATATION AND DRUG ELUTING STENTS” (MAX-PLANCK-GESELLSCHAFT ZUR FORDERUNG DER WISSENSCHAFTEN …, priority 2009, published 2012).

The test concerns arteries of KO mice. The experiment in a line: Morphological analysis of arteries after chronic treatment. The settings on record: 20 days treatment. The class given is in vivo, mouse. An excerpt: A 129S7AB2.2 genomic BAC clone (bMQ-446B20; Sanger) was used to generate the targeting vector. Recombination in SW102 cell was employed to replace the miR-143 to miR-145 genomic region by a galK cassette (45) that was amplified by the primers flanking premiR-143 to pre-miR-145 ([…] GCggcgcgcctcagcactgtcctgctcctt; […] ACggcgcgcctgttgacaattaatcatcggca). The genomic sequence was inserted via gap repair into a pKO targeting vector containing a DTA expression cassette and 450 bp homology arms for BAC recombination resulting in a vector containing 6.5 kb of sequence 5′ of miR-143 and 5.5 kb 3′ of miR-145 from genomic sequence […] to […]. The AscI restriction sites flanking the galK cassette were used to replace the galK by a floxed IRESIacZ-NeoR cassette. […]
Arteries were perfused using a PBS solution via the heart apex at 100 mmHg pressure for 2 min, followed by perfusion with 4% paraformaldehyde in PBS. […] Ultra-thin sections were stained with uranyl acetate and lead citrate, viewed and photographically recorded using a Philips CM 10 electron microscope. The phenotype of VSMC was determined ultrastructurally following criteria as previously reported (47). […] The phenotype of VSMC in each mouse was quantified in at least 300 cells per 3 arterial segments (minimum 100 μm) using consecutive transversal sections. […]

Take `C[C@H](CS)C(=O)N1CCC[C@H]1C(=O)O` [captopril]: the “significant morphological changes in arteries” value is “not observed”.

As to `CCCCc1nc(Cl)c(CO)n1Cc1ccc(-c2ccccc2-c2nn[nH]n2)cc1` [losartan], the “significant morphological changes in arteries” value is “not observed”.
